Test results from article PMC7824769, “Identification of Small Molecules Blocking the Pseudomonas aeruginosa Type III Secretion System Protein PcrV” (Biomolecules, 2021).
Several values for one entry are separate records, joined by “and”; a condition that tells them apart may be missing. Equal values may be shown once.

Legend:
PcrV = PcrV (Pseudomonas aeruginosa, UniProt G3XD49); assay: SPR dose-response binding to immobilized PcrV (equilibrium analysis); settings: for Binding to PcrV in SPR (in words): dose-response SPR
Protocol: The SPR screening was performed using the ProteOn^TM XPR36 Protein Interaction Array System (Bio-Rad Laboratories Inc., Hercules, CA, USA) with ProteOn GLH sensor chip (Bio-Rad Laboratories Inc., Hercules, CA, USA), and the results were analyzed with the ProteOn Manager software^TM (Bio-Rad Laboratories Inc., Hercules, CA, USA), Excel 2016 (Microsoft Office), and GraphPad Prism 7.04. All SPR experiments were performed at 25 °C. The multichannel module of the ProteOn system was in the vertical position during protein immobilization. The proteins were attached to the surface of a GLH sensor chip via amine coupling chemistry. A buffer scouting was performed to elucidate the optimal binding conditions of PcrV to the GLH sensor chip. First, channels 1–4 on the chip surface were activated using a 1:1 mixture of 40 mM 1-ethyl-3-(3-dimethylaminopropyl)carbodiimide hydrochloride (EDAC) (Bio-Rad Laboratories Inc., Hercules, CA, USA) and 10 mM N-hydroxysulfosuccinimide (sulfo-NHS, Bio-Rad Laboratories Inc., Hercules, CA, USA) for 300 s at 30 µL/min. Next, the proteins PcrV (33,398.6 Da, 6.37 mg/mL) was diluted in 10 mM NaOAc (pH 4, 4.5, and 5) to 0.05 mg/mL. PcrV was immobilized in channel 1–3 for 540 s at 30 µL/min. Channel 4 was flushed with 10 mM NaOAc (pH 5) for 540 s at 30 µL/min. As deactivating agent, a 1:1 mixture of 1 M ethanolamine and milli-Q filtered water was used. The deactivating solution was injected over all four channels for 300 s at 30 µL/min. Phosphate buffered saline with Tween (PBST; 10 mM phosphate buffer pH 7.4, 140 mM NaCl, 2.7 mM KCl, and 0.05% Tween 20) was used as the running buffer. The final amount of immobilized protein was measured in resonance units (RU) relative to the signal of the baseline prior activation. […] Immobilization of PcrV diluted in sodium acetate of pH 4.5 in one channel and of pH 5 in one channel were used in the beginning of the screening procedure (for plate 1–26). Since no difference was found between the two pH values, the PcrV protein was diluted in sodium acetate at pH 5 only (in two channels) from plate 27 and the rest of the screen. The immobilization procedure for the screening was performed as described above with the addition that the control protein carbonic anhydrase isoenzyme II from bovine erythrocytes (CAII, Sigma-Aldrich, article number 2522) was immobilized in one channel that was activated and deactivated as described above. CAII (1 mg/mL in PBS) was deactivated when diluted in 10 mM sodium acetate (pH 4) to 0.05 mg/mL. Immobilization level of the deactivated CAII was 18,000 RU. Deactivated CAII was used as a control protein according to the recommendations by the ProteOn manufacturer (Bio-Rad Laboratories Inc., Hercules, CA, USA). As running buffer, we employed PBS (pH 7.4, 0.05% Tween 20).
First, the PcrV protein was immobilized in two channels as described above while keeping a blank channel which was activated and deactivated as described above. The multichannel module of the ProteOn system was in horizontal position during the small molecule interaction studies. They were serially diluted to (400,) 200, 100, 50, 25, 12.5, 6.25, and (3.125); or 100, 50, 25, and 12.5 µM; or 100, 66.7, 44.4, 29.6, 19.7, and 13.2 µM in PBST (0.05% Tween 20) with a total concentration of 5% DMSO in 96-well plates. The running buffer was PBST (0.05% Tween 20) containing 5% DMSO. The analytes were injected at a flowrate of 100 µL/min, contact time was 60 s, and dissociation time was 60–120 s. Solvent correction was performed continuously during the experiments to account for bulk response of DMSO. The data was then baseline-aligned, processed by channel referencing with the blank channel, and solvent-corrected. The equilibrium dissociation constant (KD) values were determined from equilibrium analysis in the ProteOn Manager software^TM. Solubility problems frequently hampered KD determination since the small molecules could not always be dissolved in concentrations high enough to reach a plateau. […]

[1] = tested on: J774 cells infected with P. aeruginosa strain PAK; assay: cells; type: cell-based, Pseudomonas aeruginosa; settings: for viability at 25 µM / viability at 50 µM / viability at 100 µM / viability at 200 µM: Pseudomonas aeruginosa, uninfected control = 100%, infected control = 0%; for viability at 25 µM: J774, compound 25 µM, read-out: Viability Assay (% of Uninfected Control) 25 µM; for viability at 50 µM: J774, compound 50 µM, read-out: Viability Assay (% of Uninfected Control) 50 µM; for viability at 100 µM: J774, compound 100 µM, read-out: Viability Assay (% of Uninfected Control) 100 µM; for viability at 200 µM: J774, compound 200 µM; for Anti-virulence efficacy in the infection assay (in words): 25-200 µM
Protocol: The cell viability assay was performed essentially as described before. J774 cells were seeded in 96-well micro-titer plates (Nunc), 100 µL/well, to a final number of 50,000 cells/well in Dulbecco’s modified Eagle’s medium (DMEM) with glutamax (Merck) supplemented with 10% fetal calf serum (FCS) and 3 µg/mL gentamicin and incubated for 16-18 h. Overnight cultures of the P. aeruginosa strains PAK and PAKpcrV [10] were grown in Luria Broth (LB) on a rotary shaker at 220 rpm at 37 °C. Prior to infection, the bacteria were diluted 1:10 in DMEM + glutamax and incubated for 1 h at 37 °C (shaking). The J774 cells were washed once with PBS, then 30 µL of DMEM with glutamax and 10% FCS supplemented with the potential binders at concentrations of 50, 100, 200, and 400 µM were added to the wells in triplicates. The infection was initiated by adding 30 µL of the diluted bacterial solutions (where the OD600 had been diluted to 0.0008) to each well to initiate infection. This infection results in a final bacterial concentration of OD600 = 0.0004 and a multiplicities of infection (MOI) of approximately 8, with final concentrations of the compounds at 25, 50, 100, and 200 µM in 60 µL of DMEM + glutamax and 5% FCS. In the primary screening, the compounds were run at one concentration (100 µM) in duplicates. As an infection control, the wild-type strain PAK with 1% DMSO was added, and as a positive control, PAKpcrV with 1% DMSO was added into four wells each. After 3 h and 30 min, 10 µL of UptiBlue Viable Cell Counting Kit (Interchime, France) was added to all wells. The infection was followed under the light microscope and the fluorescence (excitation 535 nm and emission 595 nm) was measured at 4, 5, and 6 h in a microplate reader (Synergy™ H4, Biotek). The results were calculated as percentage of living cells compared to uninfected control, where the uninfected control was set to 100% living cells and the infected control was set to 0% living cells. As a control, compounds were added to uninfected cells in a parallel experiment and viability was calculated as above to screen for cell toxicity. A compound was considered toxic if the viability was <80% of the uninfected control after 6 h of incubation and if a visual change of cell morphology was observed by microscopy. Z’ was calculated for each plate to ensure good quality throughout the screening. Only results from plates with a Z’ > 0.4 were counted. Standard deviation was calculated with Gaussian approximation when appropriate and shown as error bars in Figure 3C and Figure 4A.
The T3SS is important for P. aeruginosa infection of eukaryotic cells, and a T3SS activator mutant or a mutant lacking the T3SS tip protein PcrV are not able to infect eukaryotic cells. The macrophage cell line, J774, was infected with the wild-type P. aeruginosa strain PAK, and the potential PcrV binders were added to the wells at a final concentration of 100 µM to screen for inhibition of infection. The T3SS-mediated cytotoxic effect on the eukaryotic cells was measured by using a viability staining method (Uptiblue, Interchim), and the results were measured after 4, 5, and 6 h of infection. The pcrV-mutant (PAKpcrV), which is not able to infect macrophages due to deletion of the PcrV protein, was used as a control.

[2] = SPR KD, equilibrium analysis, mean ± SD of three or more independent experiments, individual values where n < 3, 25 °C, PBST 5% DMSO
[3] = KD ± standard error of KD (Table S1), single experiment, standard error from ProteOn Manager software

Chain of PcrV (G3XD49 entry or part of it): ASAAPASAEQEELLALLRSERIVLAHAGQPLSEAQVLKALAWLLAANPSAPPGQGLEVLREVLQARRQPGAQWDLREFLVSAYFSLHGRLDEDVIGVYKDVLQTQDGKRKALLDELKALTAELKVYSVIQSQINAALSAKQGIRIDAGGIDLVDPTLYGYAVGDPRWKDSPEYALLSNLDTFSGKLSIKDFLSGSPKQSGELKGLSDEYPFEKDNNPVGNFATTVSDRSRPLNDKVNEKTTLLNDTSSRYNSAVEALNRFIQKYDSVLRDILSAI

Row | SMILES | Kd (PcrV; [2]) | Binding to PcrV in SPR (in words) (PcrV) | viability at 25 µM [1] [%] | viability at 50 µM [1] [%] | viability at 100 µM [1] [%] | viability at 200 µM [1] [%] | Kd (PcrV; [3]) [µM] | Rmax (Table S1) (PcrV; single experiment) | Anti-virulence efficacy in the infection assay (in words) [1]
1 | O=C(O)CCCOc1cc(Cl)cc(Cl)c1 [Compound 2] | < 127 µM and 102 µM and 127 µM | – | – | – | – | – | – | – | –
2 | O=C(O)CCCOc1ccc(Cl)cc1 [Compound 3] | > 600 µM | no binding at the examined concentrations | – | – | – | – | – | – | –
3 | O=C(O)CCCOc1ccc(I)cc1 [Compound 4] | > 600 µM | no binding at the examined concentrations | – | – | – | – | – | – | –
4 | O=C(O)CCCOc1ccc(Br)cc1F [Compound 5] | > 600 µM | no binding at the examined concentrations | – | – | – | – | – | – | –
5 | COc1ccc(Br)cc1OCCCC(=O)O [Compound 6] | > 600 µM | impaired binding | – | – | – | – | – | – | –
6 | COc1cc(OC)cc(OCCCC(=O)O)c1 [Compound 7] | > 600 µM | impaired binding | – | – | – | – | – | – | –
7 | O=C(O)CCCOc1ccc2c(c1)OCO2 [Compound 8] | > 600 µM | impaired binding | – | – | – | – | – | – | –
8 | O=C(O)CCCOc1cccc(C(F)(F)F)c1 [Compound 9] | > 600 µM | no binding to PcrV | – | – | – | – | – | – | –
9 | O=C(O)CCCOc1cccc(C(=O)O)c1 [Compound 10] | > 600 µM | no binding to PcrV | – | – | – | – | – | – | –
10 | O=C(O)CCCOc1ccc2ccc(=O)oc2c1 [Compound 11] | > 600 µM | no binding to PcrV | – | – | – | – | – | – | –
11 | Cc1cc(C#N)cc(C)c1OCCCC(=O)O [Compound 12] | > 600 µM | reduced binding | – | – | – | – | – | – | –
12 | Cc1cc(Br)cc(C)c1OCCCC(=O)O [Compound 13] | 431 ± 110 µM | reduced binding | 19 | 18 | 21 | 20 | – | – | –
13 | Cc1cc(OCCCC(=O)O)cc(C)c1Br [Compound 14] | < 150 µM and 148 µM | – | 13 | 23 | 26 | 32 | 80.7 ± 30.3 | 78.9 | as efficacious as or better than H1
14 | O=C(O)CCCOc1ccc(C2CCCCC2)cc1 [Compound 15] | 153 µM | – | 12 | 17 | 24 | 17 | – | – | –
15 | O=C(O)CCCOc1ccc(Cc2ccccc2)cc1 [Compound 16] | > 600 µM | – | – | – | – | – | – | – | –
16 | Cc1c(Br)ccc(OCCCC(=O)N2CCCC(C(=O)O)C2)c1C (centres unmarked) [Compound 20] | 71 µM and 131 µM | – | 15 | 15 | 15 | 9 | 71.2 ± 23 | – | no or modest anti-virulence activity without clear dose-response
17 | Cc1c(Br)ccc(OCCCC(=O)NC(C(=O)O)c2ccccc2)c1C (centres unmarked) [Compound 21] | 67 µM and 88 µM | – | 12 | 26 | 36 | 30 | 66.5 ± 18.5 | 149.8 | –
18 | Cc1c(Br)ccc(OCCCC(=O)N2CCCCC2C(=O)O)c1C (centres unmarked) [Compound 22] | 62 µM and 77 µM | – | 18 | 27 | 29 | 28 | 61.5 ± 14.9 | 108.6 | –
19 | Cc1c(Br)ccc(OCCCC(=O)Nc2cc(F)c(F)cc2C(=O)O)c1C [Compound 24] | > 600 µM | failed to bind PcrV | – | – | – | – | – | – | –
20 | Cc1c(Br)ccc(OCCCC(=O)NS(=O)(=O)C(F)(F)F)c1C [Compound 25] | 102 µM and 164 µM | – | 9 | 11 | 22 | 34 | – | – | as efficacious as or better than H1
21 | Cc1c(Br)ccc(OCCCC(=O)NS(C)(=O)=O)c1C [Compound 26] | 93 ± 31 µM | – | 10 | 11 | 17 | 13 | 135 ± 30 | – | –
22 | COC(=O)CCCOc1ccc(Br)c(C)c1C [Compound 29] | 110 ± 83 µM | – | 8 | 12 | 23 | 14 | 206 ± 77 | 60 | –
23 | Cc1c(Br)ccc(OCCCCC(=O)O)c1C [Compound 31] | 120 µM and 138 µM | – | 11 | 17 | 18 | 17 | – | – | no or modest anti-virulence activity without clear dose-response
